Source: patent US6258776A, “Calcium-regulated kinase” (priority 1997, dated 2001)

Experiments:
calmodulin (CaM-agarose) = assay: binding of Ndr and deletion mutants from COS-1 cell lysates to CaM-agarose
Source text: In addition, the ability of untagged Ndr to interact with CaM is investigated. COS-1 cells are transfected with pECE or with derivative plasmids encoding wild-type Ndr, NdrΔ65-81 or NdrΔ1-84 (Millward, T. A., et al., (1995) Proc. Natl. Acad. Sci. USA 92, 5022-5026) using DEAE-dextran (Seed, B. and Aruffo, A. (1987) Proc. Natl. Acad. Sci. USA 84, 3365-3369). Seventy-two hours after transfection, cells are scraped into ice-cold phosphate-buffered saline (PBS), spun down, and disrupted in buffer A (TBS containing 1 mM dithiothreitol, 0.5 mM phenylmethylsulfonyl fluoride, 4 μM leupeptin and 1 mM benzamidine) using a tight-fitting all-glass dounce homogenizer. Extracts (20 μg) are adjusted to 1 mg/ml, supplemented with either 1 mM CaCl2 or 1 mM EGTA and then mixed for 2 h with 6 μl CaM-agarose. After washing three times with 1 ml of the corresponding binding buffer, the beads are eluted with buffer A containing 5 mM EGTA. Equal portions of the unbound and EGTA-eluted fractions are analysed by immunoblofting with anti-Ndr antibodies.
Samples are separated by SDS-PAGE and electroblotted to Immobilon-P membranes (Millipore). Blots are incubated in blocking buffer (50 mM Tris-HCl pH 7.5, 150 mM NaCl, 1% (v/v) Triton X-1 00, 0.5% (v/v) Tween 20, 5% (w/v) skim milk powder) and then probed for 2 h with primary antibodies diluted in the same buffer. Ndr and GST-Ndr are detected with Ab^452-465 at 4 μg/ml (Millward, T. A., et al., Op. Cit.); GST is detected with an anti-GST antiserum (1 :1000 dilution). Bound antibodies are detected using horseradish peroxidase-conjugated donkey anti-rabbit IgG antibodies and ECL substrates (Amersham).
To verify whether this domain of Ndr is indeed responsible for its interaction with CaM, deletion mutants of Ndr are expressed in COS-1 cells and tested for CaM binding as above. […] In lysates supplemented with Ca^2 , deletion of amino acids 65-81 cause a large reduction in CaM binding (to ~10% of the level of wild-type binding) as assessed by western blotting.

S100B = assay: co-immunoprecipitation of Ndr with anti-S100B from COS-1 cells; format: cell-based; conditions: co-expressed with S100B
Procedure: For expression of Ndr and S100B in mammalian cells, the cDNAs encoding Ndr and S100B are cloned into the pECE vector, which directs expression driven by an SV40-derived promoter. In addition, an amino-terminal truncation mutant of Ndr lacking the first 84 amino acids (1-84) is used.
The plasmids encoding Ndr and S100B are transfected into COS-1 cells, either alone or in combination. Seventy-two hours later, cells extracts are prepared and immunoprecipitated with an antibody recognising S100B. In an anti-Ndr western blot of the cell extracts, it is shown that Ndr is expressed an expected.

calmodulin = conditions: cited from earlier work

Ndr: nuclear serine/threonine protein kinase
binding to CaM-agarose (calmodulin (CaM-agarose); lysate supplemented with EGTA): no detectable binding
binding to CaM-agarose (calmodulin (CaM-agarose); lysates supplemented with Ca^2+): quantitatively and selectively removed from the lysate by CaM-agarose
co-immunoprecipitation with anti-S100B (S100B): anti-S100B antibodies co-immunoprecipitated Ndr
binding to calmodulin (calmodulin): capable of binding to calmodulin
